Where a name gives a salt, the structure may show the parent alone. Read-outs that look alike come from different tables or passages of the source.
System: Acinetobacter baumannii ATCC17961
Test: Antimicrobial susceptibility testing: 90% growth inhibitory concentration (IC90) determination in Iso-Sensitest broth, OD600 growth
Type: cell-based
Settings: Acinetobacter baumannii, ATCC17961, 16 h
Method in brief: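 Growth monitored at 600 nm every 20 min for 16 h at 35±2 °C, inoculum ~5×10^(5) CFU/ml in Iso-Sensitest medium. Compounds in 10-point twofold series, e.g. 50 to 0.097 μM final; 90% inhibitory concentration taken from log-phase growth.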

[1] = read-out: A. baumannii ATCC 17961 IC90 (uM), strain ATCC 17961, OD600 growth over 16 h
[2] = strain ATCC 17961, OD600 growth over 16 h, read-out: A. baumannii ATCC 17961 IC90

Row | Structure (SMILES) | IC90 [1] [µM] | IC90 [2] [µM]
1 | CCc1cc(Nc2nccn3c(-c4c[nH]nc4C(F)(F)F)cnc23)ccc1C(=O)NC1CC2(CNC2)C1 [Example 514, 2-ethyl-N-(2-azaspiro[3.3]heptan-6-yl)-4-((3-(3-(trifluoromethyl)-1H-pyrazol-4-yl)imidazo[1,2-a]pyrazin-8-yl)amino)benzamide formate] | 0.803 | 
2 | CCc1cc(Nc2nccn3c(-c4c[nH]nc4C(F)(F)F)cnc23)ccc1C(=O)NC1CNC1 [Example 515, N-(azetidin-3-yl)-2-ethyl-4-((3-(3-(trifluoromethyl)-1H-pyrazol-4-yl)imidazo[1,2-a]pyrazin-8-yl)amino)benzamide formate] | 0.49 | 
3 | O=C(c1ccc(Nc2nccn3c(-c4c[nH]nc4C(F)(F)F)cnc23)cc1Cl)N1CCN(C(=O)[C@H]2[C@@H]3CNC[C@@H]32)CC1 [Example 516, (4-((1R,5S,6r)-3-azabicyclo[3.1.0]hexane-6-earbonyl)piperazin-1-yl) (2-chloro-4-((3-(3-(trifluoromethyl)-1H-pyrazol-4-yl)imidazo[1,2-a]pyrazin-8-yl)amino)phenyl)methanone formate] |  | 0.14
4 | CCc1cc(Nc2nccn3c(-c4c[nH]nc4C(F)(F)F)cnc23)ccc1C(=O)NCCNC(=O)N1CC[C@@H](N)C1 [Example 517, (R)-3-amino-N-(2-(2-ethyl-4-((3-(3-(trifluoromethyl)-1H-pyrazol-4-yl)imidazo[1,2-a]pyrazin-8-yl)amino)benzamido)ethyl) pyrrolidine-1-carboxamide formate] |  | 0.369
5 | Cc1cc(Nc2nccn3c(-c4c[nH]nc4C(F)(F)F)cnc23)ccc1S(C)(=O)=NCCCN (stereo not drawn) [Example 518, ((3-Aminopropyl)imino)(methyl)(2-methyl-4-((3-(3-(trifluoromethyl)-1H-pyrazol-4-yl)imidazo[1,2-α]pyrazin-8-yl)amino)phenyl)-λ^6-sulfanone] |  | 0.935
6 | O=C(c1ccc(Nc2nccn3c(-c4cn(CC(F)F)nc4C(F)(F)F)cnc23)cc1Cl)N1CCN(C(=O)[C@H]2[C@@H]3CNC[C@@H]32)CC1 [Example 519, (4-((1R,5S,6r)-3-azabicyclo[3.1.0]hexane-6-carbonyl)piperazin-1-yl)(2-chloro-4-((3-(1-(2,2-difluoroethyl)-3-(trifluoromethyl)-1H-pyrazol-4-yl)imidazo[1,2-a]pyrazin-8-yl)amino)phenyl) methanone formate] |  | 0.147
7 | CCc1cc(Nc2nccn3c(-c4cn(CC#N)nc4C(F)(F)F)cnc23)ccc1C(=O)NCCNC(=O)N1CC[C@@H](N)C1 [Example 520, (R)-3-amino-N-(2-(4-((3-(1-(cyanomethyl)-3-(trifluoromethyl)-1H-pyrazol-4-yl)imidazo [1,2-a]pyrazin-8-yl)amino)-2-ethylbenzamido)ethyl) pyrrolidine-1-carboxamide formate] |  | 0.27
8 | CCc1cc(Nc2nccn3c(-c4cn(CC#N)nc4C(F)(F)F)cnc23)ccc1C(=O)NCC(=O)NCC1CNC1 [Example 521, N-[2-(azetidin-3-ylmethylamino)-2-oxo-ethyl]-4-[[3-[1-(cyanomethyl)-3-(trifluoromethyl)pyrazol-4-yl]imidazo[1,2-a]pyrazin-8-yl]amino]-2-ethyl-benzamide formate] |  | 0.38
9 | CCc1cc(Nc2nccn3c(-c4cn(CC#N)nc4C(F)(F)F)cnc23)ccc1C(=O)NCC(=O)NCC1CCCN1 (stereo not drawn) [Example 522, 4-[[3-[1-(cyanomethyl)-3-(trifluoromethyl)pyrazol-4-yl]imidazo[1,2-a]pyrazin-8-yl]amino]-2-ethyl-N-[2-oxo-2-(pyrrolidin-2-ylmethylamino)ethyl] benzamide formate] |  | 0.402
10 | CCc1cc(Nc2nccn3c(-c4cn(CC#N)nc4C(F)(F)F)cnc23)ccc1C(=O)NCC(=O)NCC1CCNC1 (stereo not drawn) [Example 523, 4-[[3-[1-(cyanomethyl)-3-(trifluoromethyl)pyrazol-4-yl]imidazo[1,2-a]pyrazin-8-yl]amino]-2-ethyl-N-[2-oxo-2-(pyrrolidin-3-ylmethylamino)ethyl] benzamide formate] |  | 0.313
11 | CCc1cc(Nc2nccn3c(-c4cn(CC#N)nc4C(F)(F)F)cnc23)ccc1C(=O)NCC(=O)NCC1CCNCC1 [Example 524, 4-[[3-[1-(cyanomethyl)-3-(trifluoromethyl)pyrazol-4-yl]imidazo[1,2-a]pyrazin-8-yl]amino]-2-ethyl-N-[2-oxo-2-(4-piperidylmethylamino)ethyl] benzamide formate] |  | 0.395
12 | CCc1cc(Nc2nccn3c(-c4cn(CC#N)nc4C(F)(F)F)cnc23)ccc1C(=O)NCC(=O)NCC1(O)CCNCC1 [Example 525, 4-[[3-[1-(cyanomethyl)-3-(trifluoromethyl)pyrazol-4-yl]imidazo[1,2-a]pyrazin-8-yl]amino]-2-ethyl-N-[2-[(4-hydroxy-4-piperidyl)methylamino]-2-oxo-ethyl]benzamide formate] | 0.593 | 
13 | CCc1cc(Nc2nccn3c(-c4cn(CC(F)F)nc4C(F)(F)F)cnc23)ccc1C(=O)NCC(=O)N1CC2(CNC2)C1 [Example 526, N-[2-(2,6-diazaspiro[3.3]heptan-2-yl)-2-oxo-ethyl]-4-[[3-[1-(2,2-difluoroethyl)-3-(trifluoromethyl)pyrazol-4-yl]imidazo[1,2-a]pyrazin-8-yl]amino]-2-ethyl-benzamide formate] | 0.306 | 
14 | CCc1cc(Nc2nccn3c(-c4cn(CC(F)F)nc4C(F)(F)F)cnc23)ccc1C(=O)NCC(=O)N1CCC(CN)C1 (stereo not drawn) [Example 527, N-[2-[3-(aminomethyl)pyrrolidin-1-yl]-2-oxo-ethyl]-4-[[3-[1-(2,2-difluoroethyl)-3-(trifluoromethyl)pyrazol-4-yl]imidazo[1,2-a]pyrazin-8-yl]amino]-2-ethyl-benzamide formate] | 0.306 | 
15 | CCc1cc(Nc2nccn3c(-c4cn(CC(F)F)nc4C(F)(F)F)cnc23)ccc1C(=O)NCC(=O)N1CCCC1CN (stereo not drawn) [Example 528, N-[2-[2-(aminomethyl)pyrrolidin-1-yl]-2-oxo-ethyl]-4-[[3-[1-(2,2-difluoroethyl)-3-(trifluoromethyl)pyrazol-4-yl]imidazo[1,2-a]pyrazin-8-yl]amino]-2-ethyl-benzamide formate] | 0.243 | 
16 | CCc1cc(Nc2nccn3c(-c4cn(CC(F)F)nc4C(F)(F)F)cnc23)ccc1C(=O)NCC(=O)NC1C2CNCC21 (stereo not drawn) [Example 529, N-[2-(3-azabicyclo[3.1.0]hexan-6-ylamino)-2-oxo-ethyl]-4-[[3-[1-(2,2-difluoroethyl)-3-(trifluoromethyl)pyrazol-4-yl]imidazo[1,2-a]pyrazin-8-yl]amino]-2-ethyl-benzamide formate] | 0.248 | 
17 | CCc1cc(Nc2nccn3c(-c4cn(CC(F)F)nc4C(F)(F)F)cnc23)ccc1C(=O)NCC(=O)NCC1CCN1 (stereo not drawn) [Example 530, N-[2-(azetidin-2-ylmethylamino)-2-oxo-ethyl]-4-[[3-[1-(2,2-difluoroethyl)-3-(trifluoromethyl)pyrazol-4-yl]imidazo[1,2-a]pyrazin-8-yl]amino]-2-ethyl-benzamide formate] | 0.327 | 
18 | CCc1cc(Nc2nccn3c(-c4c[nH]nc4C(F)(F)F)cnc23)ccc1C(=O)NCCCNC(=O)[C@H]1C[C@@H](N)C1 [Example 531, N-(3-((1s,3s)-3-aminocyclobutane-1-carboxamido)propyl)-2-ethyl-4-((3-(3-(trifluoromethyl)-1H-pyrazol-4-yl)imidazo [1,2-a]pyrazin-8-yl)amino)benzamide formate] |  | 0.299
19 | CCc1cc(Nc2nccn3c(-c4c[nH]nc4C(F)(F)F)cnc23)ccc1C(=O)NCCCNC(=O)[C@H]1C[C@H](N)C1 [Example 532, N-(3-((1r,3r)-3-aminocyclobutane-1-carboxamido)propyl)-2-ethyl-4-((3-(3-(trifluoromethyl)-1H-pyrazol-4-yl)imidazo [1,2-a]pyrazin-8-yl)amino)benzamide formate] |  | 0.245
20 | CCc1cc(Nc2nccn3c(-c4c[nH]nc4C(F)(F)F)cnc23)ccc1C(=O)NCCCNC(=O)[C@@H]1CC[C@H](N)C1 [Example 534, N-(3-((1R,3S)-3-aminocyclopentane-1-carboxamido)propyl)-2-ethyl-4-((3-(3-(trifluoromethyl)-1H-pyrazol-4-yl)imidazo[1,2-a]pyrazin-8-yl)amino)benzamide formate] | 0.251 | 
21 | CCc1cc(Nc2nccn3c(-c4c[nH]nc4C(F)(F)F)cnc23)ccc1C(=O)NCCCNC(=O)[C@H]1CC[C@@H](N)C1 [Example 535, N-(3-((1S,3R)-3-aminocyclopentane-1-carboxamido)propyl)-2-ethyl-4-((3-(3-(trifluoromethyl)-1H-pyrazol-4-yl)imidazo[1,2-a]pyrazin-8-yl)amino)benzamide formate] | 0.247 | 
22 | CCc1cc(Nc2nccn3c(-c4cn(CC(F)F)nc4C(F)(F)F)cnc23)ccc1C(=O)NCCNC(=O)CCN [Example 536, N-(2-(3-aminopropanamido)ethyl)-4-((3-(1-(2,2-difluoroethyl)-3-(trifluoromethyl)-1H-pyrazol-4-yl)imidazo[1,2-a]pyrazin-8-yl)amino)-2-ethylbenzamide formate] | 0.145 | 
23 | CCc1cc(Nc2nccn3c(-c4cn(CC(F)F)nc4C(F)(F)F)cnc23)ccc1C(=O)NCCNC(=O)CCCN [Example 537, N-(2-(4-aminobutanamido)ethyl)-4-((3-(1-(2,2-difluoroethyl)-3-(trifluoromethyl)-1H-pyrazol-4-yl)imidazo[1,2-a]pyrazin-8-yl)amino)-2-ethylbenzamide formate] | 0.163 | 
24 | CCc1cc(Nc2nccn3c(-c4cn(CC(F)F)nc4C(F)(F)F)cnc23)ccc1C(=O)NCC(=O)N1CC2CC1CN2 (stereo not drawn) [Example 538, N-2-(2,5-diazabicyclo[2.2.1]heptan-2-yl)-2-oxo-ethyl]-4-[[3-[1-(2,2-difluoroethyl)-3-(trifluoromethyl)pyrazol-4-yl]imidazo[1,2-a]pyrazin-8-yl]amino]-2-ethyl-benzamide formate] |  | 0.261
